Measured values published in the NIST ThermoML archive (doi:10.1016/j.jct.2016.03.035).
“And” between values parts separate entries of the source, which are not always exact repeats. Equal entries are not always repeated. ± gives the expanded uncertainty stated by the source.

Experiment: xn = mol fraction of the nth substance listed
Conditions: 273.15 K, Gas, Buoyancy - hydrostatic balance with magnetic suspension - two sinkers

## C [methane] + CCC
441.3 kPa, x1 = 0.5069
  mass density: 6.0554 ± 0.0068 kg/m3
441.54 kPa, x1 = 0.5069
  mass density: 6.0588 ± 0.0066 kg/m3
453.5 kPa, x1 = 0.5069
  mass density: 6.23 ± 0.0053 kg/m3
453.52 kPa, x1 = 0.5069
  mass density: 6.23 ± 0.0052 kg/m3
453.54 kPa, x1 = 0.5069
  mass density: 6.2304 ± 0.0051 kg/m3
486.09 kPa, x1 = 0.2658
  mass density: 8.458 ± 0.0058 kg/m3 and 8.4582 ± 0.0058 kg/m3
486.1 kPa, x1 = 0.2658
  mass density: 8.4581 ± 0.0058 kg/m3
491.06 kPa, x1 = 0.5069
  mass density: 6.7718 ± 0.093 kg/m3
491.73 kPa, x1 = 0.2658
  mass density: 8.5643 ± 0.0058 kg/m3 and 8.5641 ± 0.0058 kg/m3 and 8.564 ± 0.0058 kg/m3
497.16 kPa, x1 = 0.5069
  mass density: 6.8601 ± 0.092 kg/m3
500.88 kPa, x1 = 0.7498
  mass density: 5.2229 ± 0.0062 kg/m3
500.89 kPa, x1 = 0.7498
  mass density: 5.2229 ± 0.0062 kg/m3
503.23 kPa, x1 = 0.5069
  mass density: 6.9481 ± 0.092 kg/m3
506.92 kPa, x1 = 0.5069
  mass density: 7.0016 ± 0.0055 kg/m3
506.93 kPa, x1 = 0.5069
  mass density: 7.0019 ± 0.0054 kg/m3
506.95 kPa, x1 = 0.5069
  mass density: 7.0022 ± 0.0054 kg/m3
537.7 kPa, x1 = 0.2658
  mass density: 9.4418 ± 0.0063 kg/m3 and 9.4416 ± 0.0063 kg/m3
537.71 kPa, x1 = 0.2658
  mass density: 9.4418 ± 0.0063 kg/m3
554.75 kPa, x1 = 0.5069
  mass density: 7.701 ± 0.018 kg/m3
555.81 kPa, x1 = 0.5069
  mass density: 7.717 ± 0.018 kg/m3
556.85 kPa, x1 = 0.5069
  mass density: 7.7324 ± 0.018 kg/m3
562.21 kPa, x1 = 0.2658
  mass density: 9.9156 ± 0.0064 kg/m3 and 9.9157 ± 0.0064 kg/m3
568.57 kPa, x1 = 0.2658
  mass density: 10.0393 ± 0.0064 kg/m3 and 10.0391 ± 0.0064 kg/m3
607.74 kPa, x1 = 0.5069
  mass density: 8.4834 ± 0.0062 kg/m3
607.75 kPa, x1 = 0.5069
  mass density: 8.4836 ± 0.0061 kg/m3
607.76 kPa, x1 = 0.5069
  mass density: 8.484 ± 0.0061 kg/m3
608.84 kPa, x1 = 0.2658
  mass density: 10.8308 ± 0.0068 kg/m3 and 10.8306 ± 0.0069 kg/m3
611.36 kPa, x1 = 0.5069
  mass density: 8.5381 ± 0.014 kg/m3
612.13 kPa, x1 = 0.5069
  mass density: 8.5492 ± 0.014 kg/m3
612.89 kPa, x1 = 0.5069
  mass density: 8.5606 ± 0.014 kg/m3
615.59 kPa, x1 = 0.2658
  mass density: 10.9646 ± 0.0069 kg/m3 and 10.9644 ± 0.0068 kg/m3 and 10.9642 ± 0.0067 kg/m3
619.26 kPa, x1 = 0.5069
  mass density: 8.6551 ± 0.089 kg/m3
625.49 kPa, x1 = 0.5069
  mass density: 8.7476 ± 0.09 kg/m3
631.66 kPa, x1 = 0.5069
  mass density: 8.8402 ± 0.09 kg/m3
652.39 kPa, x1 = 0.2658
  mass density: 11.7012 ± 0.0072 kg/m3
652.4 kPa, x1 = 0.2658
  mass density: 11.7011 ± 0.0071 kg/m3
659.32 kPa, x1 = 0.2658
  mass density: 11.841 ± 0.0072 kg/m3 and 11.8409 ± 0.007 kg/m3 and 11.8406 ± 0.0072 kg/m3
699.84 kPa, x1 = 0.5069
  mass density: 9.8667 ± 0.098 kg/m3
701.3 kPa, x1 = 0.5069
  mass density: 9.889 ± 0.007 kg/m3
701.31 kPa, x1 = 0.5069
  mass density: 9.8889 ± 0.007 kg/m3
701.32 kPa, x1 = 0.5069
  mass density: 9.8887 ± 0.0069 kg/m3
705.89 kPa, x1 = 0.5069
  mass density: 9.9581 ± 0.098 kg/m3
711.37 kPa, x1 = 0.5069
  mass density: 10.0422 ± 0.0097 kg/m3
711.71 kPa, x1 = 0.5069
  mass density: 10.0475 ± 0.0096 kg/m3
711.89 kPa, x1 = 0.5069
  mass density: 10.0504 ± 0.098 kg/m3
712.05 kPa, x1 = 0.5069
  mass density: 10.0527 ± 0.0096 kg/m3
776.08 kPa, x1 = 0.5069
  mass density: 11.034 ± 0.11 kg/m3
781.94 kPa, x1 = 0.5069
  mass density: 11.1239 ± 0.082 kg/m3
787.74 kPa, x1 = 0.5069
  mass density: 11.2144 ± 0.11 kg/m3
802.95 kPa, x1 = 0.5069
  mass density: 11.451 ± 0.01 kg/m3
803.19 kPa, x1 = 0.5069
  mass density: 11.4546 ± 0.01 kg/m3
803.43 kPa, x1 = 0.5069
  mass density: 11.4585 ± 0.0098 kg/m3
829.51 kPa, x1 = 0.5069
  mass density: 11.8643 ± 0.0082 kg/m3
829.52 kPa, x1 = 0.5069
  mass density: 11.8644 ± 0.0082 kg/m3 and 11.8643 ± 0.0082 kg/m3
883.12 kPa, x1 = 0.5069
  mass density: 12.7095 ± 0.1 kg/m3
888.99 kPa, x1 = 0.5069
  mass density: 12.8025 ± 0.1 kg/m3
894.82 kPa, x1 = 0.5069
  mass density: 12.8951 ± 0.099 kg/m3
899.8 kPa, x1 = 0.7498
  mass density: 9.5967 ± 0.0086 kg/m3 and 9.5966 ± 0.0087 kg/m3
899.82 kPa, x1 = 0.7498
  mass density: 9.5965 ± 0.0086 kg/m3
907.75 kPa, x1 = 0.5069
  mass density: 13.1005 ± 0.0085 kg/m3
907.76 kPa, x1 = 0.5069
  mass density: 13.1006 ± 0.0085 kg/m3
929.46 kPa, x1 = 0.5069
  mass density: 13.4491 ± 0.017 kg/m3
930.26 kPa, x1 = 0.5069
  mass density: 13.4619 ± 0.017 kg/m3
